According to patent US6780866B2, “Analgesic composition and method” (priority 2001, dated 2004):
Where “and” joins values, the source holds several entries; their conditions need not be identical. Equal values may be shown once.

Key:
[1] = tested on: formalin-induced inflammatory pain; parameters: species or system Wistar male rats; settings: rat, in vivo
[2] = tested on: heat-induced tail-flick (nociceptive pain); parameters: species or system Kunming mice; settings: mouse, in vivo
Experimental: 320 screened mice, half male and half female, were randomly divided into 16 groups. They were not given food, only water 12 hours prior to dosing.
The heat tail flick analgesia meter includes a heat source consisting of a 12 V, 50 watt, 8.75 mm projector lamp. The light beam from the heat source was focused and directed to a point on the tail of a mouse being tested, having a distance of 1-2 mm plus ⅓ of the tail length to the tail end.
The test drugs were given intramuscularly. […] The tail-flick latencies, which were assessed in response to a noxious heat stimulus, i.e., the response time from applying radiant heat on the dorsal surface of the tail to the occurrence of tail flick, were measured and recorded at 15, 30, 45, 60, 90, 120, 150, 180 min. after dosing. For each measurement, three readings were made consecutively one minute apart, and their average was recorded as the latency. The testing on one animal would be terminated when tail-flick was not observed within 20 seconds, and the latency would be recorded as 20 seconds. The pain inhibition rate was calculated according to the following formula for the purpose of assessing the analgesia potency: […]
The results were processed with SPSS, a statistical software provided by SPSS, Inc. of Chicago, Ill., USA. Half effective dose (ED50) and half inhibition dose (ID50) were calculated with the probit method.

[3] = tested on: formalin-induced inflammatory pain; settings: rat, in vivo; cited from earlier work
[4] = tested on: pain; settings: in vivo; cited from earlier work

| SMILES | ID50 of morphine [1] [mg/kg] | ED95 of morphine [2] | ID50 of morphine [2] [mg/kg] | Inhibition rate (%) ([1]; 3 mg/kg) | Pain reaction score ([1]; 3 mg/kg) | Inhibition rate (%) ([2]; 3 mg/kg) | Latency after dosing ([2]; 3 mg/kg) | inhibition [3] [%] | analgesic potency relative to morphine [4] |
| --- | --- | --- | --- | --- | --- | --- | --- | --- | --- |
| CN1CC[C@]23c4c5ccc(O)c4O[C@H]2[C@@H](O)C=C[C@H]3[C@H]1C5.Cl [Morphine, Morphine hydrochloride] | 2.30 | 0.77 | 0.33 | – | – | – | – | – | – |
| N=C1NC(O)C2C3OC4(O)OC(C(O)C2(N1)C4O)C3(O)CO (stereo not drawn) [TTX, octahydro-12-(hydroxymethyl)-2-imino-5,9:7,10a-dimethano-10aH-[1,3]dioxocino[6,5-d]pyrimidine-4,7,10,11,12-pentol] | – | – | – | 32.9% and 11.6% | 169.1 ± 47.2 and 223.0 ± 58.3 | 5.44% and 12.06% | 5.88 ± 1.00 and 6.04 ± 0.76 | 71.7 | about 3,000 times |
